The values below are quoted from earlier work in patent US6322816A, “Fast-acting analgesic” (priority 1997, dated 2001).

Counter-ions that a name gives are not always drawn.

The conditions of series [1]: in words, background.
For series [2] the following is noted: versus free acid; in words, background.
For series [3] the following is noted: in words, DE-C 36 39 038.

As for `CC(C)Cc1ccc(C(C)C(=O)O)cc1` (racemic) [ibuprofen, 2-(4-isobutylphenyl)propionic acid], the solubility result in series [1] is listed as “low solubility”.

As for `CC(C)Cc1ccc(C(C)C(=O)O)cc1` (racemic) [lysine salt], the “maximum blood level Cmax compared with the free acid” value in series [2] was “distinctly faster and higher maximum blood level Cmax”.

Take `CC(C)Cc1ccc(C(C)C(=O)O)cc1` (racemic) [sodium ibuprofenate]: in series [1], the hygroscopicity result is listed as “hygroscopic”.

As for `CC(C)Cc1ccc([C@H](C)C(=O)O)cc1` [S(+) isomer, S(+)-ibuprofen], the onset of action result in series [3] was “faster onset of action”.
